Values joined by “and” are separate entries in the source; they are usually repeats but may differ in a detail not shown here. Identical values can stand only once.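 These data come from cells grown in 96-well plates and exposed to compound for 48 hours at five concentrations. At the TGI there is no net growth.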
Columns and labels:
Experiment in all cases: NCI-60 cell line screen, 48 h
UACC-62 melanoma = test system: UACC-62 melanoma
UO-31 renal = test system: UO-31 renal
CCRF-CEM leukemia = test system: CCRF-CEM leukemia
OVCAR-3 ovarian = test system: OVCAR-3 ovarian
OVCAR-4 ovarian = test system: OVCAR-4 ovarian
DMS 114 small cell lung = test system: DMS 114 small cell lung
LXFL 529 NSCLC = test system: LXFL 529 NSCLC
U251 CNS = test system: U251 CNS
EKVX NSCLC = test system: EKVX NSCLC
MDA-MB-435 = test system: MDA-MB-435
PC-3 prostate = test system: PC-3 prostate

Row | SMILES | TGI (UACC-62 melanoma) | TGI (UO-31 renal) | TGI (CCRF-CEM leukemia) | TGI (OVCAR-3 ovarian) | TGI (OVCAR-4 ovarian) | TGI (DMS 114 small cell lung) | TGI (LXFL 529 NSCLC) | TGI (U251 CNS) | TGI (EKVX NSCLC) | TGI (MDA-MB-435) | TGI (PC-3 prostate)
1 | O=C(NN1C(=O)C(Cl)C1c1c(O)ccc2ccccc12)c1ccccc1O (configuration not stated) | > 100 µM | > 100 µM | > 100 µM | > 100 µM | > 100 µM | > 100 µM | > 100 µM | > 100 µM |  |  | 
2 | O[C@]12c3ccccc3C1CCCCC2N1CCOCC1 (some centres not stated) | > 100 µM | > 100 µM | > 100 µM |  | > 100 µM | > 100 µM | > 100 µM | > 100 µM | > 100 µM |  | 
3 | C/C(CC(=O)Nc1cccc(Cl)c1C)=N\N=C(N)N | > 100 µM | > 100 µM | > 100 µM | > 100 µM | > 100 µM | > 100 µM | > 100 µM | > 100 µM | > 100 µM |  | 
4 | CSc1nc(C)cc(=O)n1C1OC(COC(C)=O)C(OC(C)=O)C(OC(C)=O)C1OC(C)=O (configuration not stated) | > 100 µM | > 100 µM | > 100 µM | > 100 µM | > 100 µM | > 100 µM | > 100 µM | > 100 µM | > 100 µM |  | 
5 | COc1ccc2nc(-c3ccc(O)cc3)ccc2c1 | > 100 µM | > 100 µM | > 100 µM | > 100 µM | > 100 µM | > 100 µM | > 100 µM |  | > 100 µM |  | 
6 | Cc1cc(OC(=O)c2c(C)cc(OC(=O)c3c(C)cc(O)cc3O)cc2O)cc(O)c1C(=O)O | > 100 µM | > 100 µM | > 100 µM | > 100 µM | > 100 µM | > 100 µM | > 100 µM | > 100 µM | > 100 µM |  | 
7 | O=c1c2ccccc2n2cnc3ccc(NCCNCCO)c1c32 | 7.27 µM | 11.6 µM | > 47.3 µM | 9.82 µM | 4.57 µM | 12.2 µM | 16.4 µM | 13.6 µM | 8.49 µM | 6.68 µM | 6.15 µM
8 | COc1cccc(-c2[nH]c3cc4c(cc3c(=O)c2C(=O)O)OCO4)c1 | > 100 µM | > 100 µM | > 100 µM | > 100 µM | > 100 µM |  |  | > 100 µM | > 100 µM | > 100 µM | > 100 µM
9 | O=C1c2ccccc2-n2c1nc1ccc(Cl)cc1c2=O | 92.7 µM | > 100 µM | 13.8 µM | > 100 µM | > 100 µM |  |  | > 100 µM | > 100 µM | 31.1 µM | > 100 µM
10 | Nc1ncnc2c1ncn2CCOC(c1ccccc1)P(=O)(O)O (configuration not stated) | > 100 µM | > 100 µM | > 100 µM | > 100 µM |  |  | > 100 µM | > 100 µM | > 100 µM |  | 
11 | C=C1C(=O)O[C@@H]2[C@H]1C[C@H](I)[C@@]1(C)CC[C@H](O1)[C@](C)(I)CCCC(C)[C@@H]2O (some centres not stated) | 16.4 µM | 7.74 µM | 1.59 µM | 8.09 µM | 17.6 µM |  |  | 20 µM | 22.9 µM | 11.6 µM | 24.6 µM
12 | C=C(Cl)C(Cl)(CBr)CCC(Br)C(C)(C)Cl (configuration not stated) | 12 µM and 15.2 µM and 2.68 µM | 3.71 µM and 3.73 µM and 11.3 µM | 45.6 µM and 35 µM and > 100 µM | 3.09 µM and 1.96 µM and 4.78 µM | 7.93 µM and 4.62 µM and 31.9 µM |  |  | 2.08 µM and 0.925 µM and 2.71 µM | 7.36 µM and 4.19 µM and 12.8 µM | 6.56 µM and 4.63 µM and 23.4 µM | 2.42 µM and 2.17 µM and 3.02 µM
13 | N#C[C@H](C(=O)c1ccccc1F)c1nc2ccccc2[nH]1 | > 100 µM | > 100 µM | > 100 µM | > 100 µM | > 100 µM |  |  | > 100 µM | > 100 µM | > 100 µM | > 100 µM
14 | Cn1c(SCc2c[nH]c3ccccc23)nnc1-c1ccc(Cl)cc1Cl | 39.3 µM | 82.9 µM | 45.4 µM | 35.1 µM | 34.2 µM |  |  | 38.1 µM | 49.6 µM | 12 µM | 36.5 µM
15 | CCCCCC(/C=C/[C@@H]1[C@@H](C(O)CCCCCC(=O)OC)C(=O)C[C@H]1O[Si](C)(C)C(C)(C)C)OCOCCOC (some centres not stated) | 27.5 µM | 28.9 µM | > 24.5 µM | 28.1 µM | 40.9 µM |  |  | 27.4 µM | 37.6 µM | 27.9 µM | 27.4 µM
16 | CCN(CC)C(=S)S | 12.3 µM | > 100 µM | 9.46 µM |  |  |  | > 100 µM |  | > 100 µM |  | 
17 | CC(=O)O[C@H]1C[C@@H](OC(C)=O)[C@@](C)(O)[C@@H]2[C@@H](OC(C)=O)[C@@]3(O)[C@H](/C=C(/CCl)[C@H]4O[C@H]4[C@@H](OC(C)=O)[C@@]12C)OC(=O)[C@@H]3C | > 25 µM | > 25 µM | > 25 µM | > 25 µM | > 25 µM |  |  | > 25 µM | > 25 µM | > 25 µM | > 25 µM
18 | Brc1ccc(-c2nc(-c3ccc(Br)cc3)n(-c3ccccc3)n2)cc1 | > 100 µM | > 100 µM | > 100 µM | > 100 µM | > 100 µM |  |  | > 100 µM | > 100 µM | > 100 µM | > 100 µM
19 | Cc1cc2c3c(c1)CCCN3CCC2 | > 10 µM | > 10 µM | > 10 µM | > 10 µM | > 10 µM |  |  | > 10 µM | > 10 µM | > 10 µM | > 10 µM
20 | CN(CCCNC(=O)c1c2ccc3ccccc3c2nn1C)CCCNC(=O)c1c2ccc3ccccc3c2nn1C | 3.76 µM | 19.9 µM | 23.6 µM | 37.3 µM | 24 µM |  |  | 22.1 µM | 22.3 µM | 6.09 µM | 27.5 µM
21 | N=C(N)c1ccc(N=Nc2c(O)ccc3cc(O)ccc23)cc1 | > 100 µM | > 100 µM | > 100 µM | > 100 µM | > 100 µM |  |  | > 100 µM | > 100 µM | > 100 µM | > 100 µM
22 | CSC1(Cc2ccccn2)C(=O)Nc2cccc([N+](=O)[O-])c21 (configuration not stated) | > 100 µM | > 100 µM | > 100 µM | > 100 µM | > 100 µM |  |  | > 100 µM | > 100 µM | > 100 µM | > 100 µM
23 | Cn1c(=O)n2n(c1=O)C(S(=O)c1ccccc1)C2 (configuration not stated) | > 100 µM | > 100 µM | > 100 µM | > 100 µM | > 100 µM |  |  | > 100 µM | > 100 µM | > 100 µM | > 100 µM
24 | Nc1ncnc2c1N=C(c1ccccc1)CC(c1ccccc1)N2 (configuration not stated) | > 100 µM | > 100 µM | > 100 µM | > 100 µM | > 100 µM |  |  | > 100 µM | > 100 µM | > 100 µM | > 100 µM
25 | Clc1ccc(Cn2cc(/C=N/n3cnnc3)c3ccccc32)cc1 | > 100 µM | > 100 µM | > 100 µM | > 100 µM | > 100 µM |  |  | > 100 µM | > 100 µM | > 100 µM | > 100 µM
26 | CC(N)=O.[Cl][Pt][Cl].[NH-]c1ccn(C2OC(CO)C(O)C2O)c(=O)n1 (configuration not stated) | > 100 µM | > 100 µM | > 100 µM | > 100 µM | > 100 µM |  |  | > 100 µM | > 100 µM | > 100 µM | > 100 µM

— PubChem BioAssay (NCI)
